Reference: PubChem BioAssay (NCI)
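Five compound concentrations were applied to cells in 96-well plates for 48 hours; endpoints were derived by simple linear interpolation of the resulting dose-response curve. TGI denotes the concentration required for complete inhibition of growth.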

Key:
Experiment in all cases: NCI anticancer screen, dose series, 48 h
U251 CNS = system: U251 CNS
M19-MEL melanoma = system: M19-MEL melanoma
XF 498 CNS = system: XF 498 CNS
786-0 renal = system: 786-0 renal
ACHN renal = system: ACHN renal
OVCAR-3 ovarian = system: OVCAR-3 ovarian
SF-268 CNS = system: SF-268 CNS
DMS 273 small cell lung = system: DMS 273 small cell lung
NCI-H522 lung = system: NCI-H522 lung
HOP-62 NSCLC = system: HOP-62 NSCLC
OVCAR-4 ovarian = system: OVCAR-4 ovarian
SK-MEL-28 melanoma = system: SK-MEL-28 melanoma
SR leukemia = system: SR leukemia
A498 renal = system: A498 renal
HCT-116 colon = system: HCT-116 colon
KM20L2 colon = system: KM20L2 colon
SNB-75 CNS = system: SNB-75 CNS
NCI-H23 lung = system: NCI-H23 lung
HOP-92 NSCLC = system: HOP-92 NSCLC
SK-MEL-5 melanoma = system: SK-MEL-5 melanoma
RXF-631 renal = system: RXF-631 renal
SNB-78 CNS = system: SNB-78 CNS
TK-10 renal = system: TK-10 renal
NCI-H226 lung = system: NCI-H226 lung
SW-620 colon = system: SW-620 colon
SN12C renal = system: SN12C renal
COLO 205 colon = system: COLO 205 colon
LOX IMVI melanoma = system: LOX IMVI melanoma
CAKI-1 renal = system: CAKI-1 renal
SK-OV-3 ovarian = system: SK-OV-3 ovarian
LXFL 529 NSCLC = system: LXFL 529 NSCLC
K-562 leukemia = system: K-562 leukemia
RPMI-8226 leukemia = system: RPMI-8226 leukemia
SF-539 CNS = system: SF-539 CNS
A549 NSCLC = system: A549 NSCLC
OVCAR-8 ovarian = system: OVCAR-8 ovarian
DLD-1 colon = system: DLD-1 colon
DMS 114 small cell lung = system: DMS 114 small cell lung
NCI-H460 lung = system: NCI-H460 lung
UO-31 renal = system: UO-31 renal
SF-295 CNS = system: SF-295 CNS
MALME-3M melanoma = system: MALME-3M melanoma
KM12 colon = system: KM12 colon
UACC-62 melanoma = system: UACC-62 melanoma
IGROV1 ovarian = system: IGROV1 ovarian
HT29 colon = system: HT29 colon
SNB-19 CNS = system: SNB-19 CNS
CCRF-CEM leukemia = system: CCRF-CEM leukemia
RXF 393 renal = system: RXF 393 renal
HOP-18 NSCLC = system: HOP-18 NSCLC
HCC-2998 colon = system: HCC-2998 colon
UACC-257 melanoma = system: UACC-257 melanoma
MOLT-4 leukemia = system: MOLT-4 leukemia
EKVX NSCLC = system: EKVX NSCLC
M14 melanoma = system: M14 melanoma
HL-60(TB) leukemia = system: HL-60(TB) leukemia
OVCAR-5 ovarian = system: OVCAR-5 ovarian
SK-MEL-2 melanoma = system: SK-MEL-2 melanoma
HCT-15 colon = system: HCT-15 colon

Cc1cc(NS(=O)(=O)c2ccc(NC(=O)c3cccn4c(=O)c5ccccc5nc34)cc2)no1
TGI (U251 CNS): > 100 µM
TGI (M19-MEL melanoma): > 100 µM
TGI (XF 498 CNS): > 100 µM
TGI (786-0 renal): > 100 µM
TGI (ACHN renal): > 100 µM
TGI (OVCAR-3 ovarian): > 100 µM
TGI (SF-268 CNS): > 100 µM
TGI (DMS 273 small cell lung): > 100 µM
TGI (NCI-H522 lung): > 100 µM
TGI (HOP-62 NSCLC): > 100 µM
TGI (OVCAR-4 ovarian): > 100 µM
TGI (SK-MEL-28 melanoma): > 100 µM
TGI (SR leukemia): > 100 µM
TGI (A498 renal): > 100 µM
TGI (HCT-116 colon): > 100 µM
TGI (KM20L2 colon): > 100 µM
TGI (SNB-75 CNS): > 100 µM
TGI (NCI-H23 lung): > 100 µM
TGI (HOP-92 NSCLC): > 100 µM
TGI (SK-MEL-5 melanoma): > 100 µM
TGI (RXF-631 renal): > 100 µM
TGI (SNB-78 CNS): > 100 µM
TGI (TK-10 renal): > 100 µM
TGI (NCI-H226 lung): > 100 µM
TGI (SW-620 colon): > 100 µM
TGI (SN12C renal): > 100 µM
TGI (COLO 205 colon): > 100 µM
TGI (LOX IMVI melanoma): > 100 µM
TGI (CAKI-1 renal): > 100 µM
TGI (SK-OV-3 ovarian): > 100 µM
TGI (LXFL 529 NSCLC): > 100 µM
TGI (K-562 leukemia): > 100 µM
TGI (RPMI-8226 leukemia): > 100 µM
TGI (SF-539 CNS): > 100 µM
TGI (A549 NSCLC): > 100 µM
TGI (OVCAR-8 ovarian): > 100 µM
TGI (DLD-1 colon): > 100 µM
TGI (DMS 114 small cell lung): > 100 µM
TGI (NCI-H460 lung): > 100 µM
TGI (UO-31 renal): > 100 µM
TGI (SF-295 CNS): > 100 µM
TGI (MALME-3M melanoma): > 100 µM
TGI (KM12 colon): > 100 µM
TGI (UACC-62 melanoma): > 100 µM
TGI (IGROV1 ovarian): > 100 µM
TGI (HT29 colon): > 100 µM
TGI (SNB-19 CNS): > 100 µM
TGI (CCRF-CEM leukemia): > 100 µM
TGI (RXF 393 renal): > 100 µM
TGI (HOP-18 NSCLC): > 100 µM
TGI (HCC-2998 colon): > 100 µM
TGI (UACC-257 melanoma): > 100 µM
TGI (MOLT-4 leukemia): > 100 µM
TGI (EKVX NSCLC): > 100 µM
TGI (M14 melanoma): > 100 µM
TGI (HL-60(TB) leukemia): > 100 µM

O=C(CC1C(=O)Nc2ccccc2S1=O)Nc1ccccc1 (stereo not drawn)
TGI (U251 CNS): > 100 µM
TGI (M19-MEL melanoma): > 100 µM
TGI (XF 498 CNS): > 100 µM
TGI (786-0 renal): > 100 µM
TGI (ACHN renal): > 100 µM
TGI (OVCAR-3 ovarian): > 100 µM
TGI (SF-268 CNS): > 100 µM
TGI (DMS 273 small cell lung): > 100 µM
TGI (NCI-H522 lung): > 100 µM
TGI (HOP-62 NSCLC): > 100 µM
TGI (OVCAR-4 ovarian): > 100 µM
TGI (OVCAR-5 ovarian): > 100 µM
TGI (SK-MEL-28 melanoma): > 100 µM
TGI (SR leukemia): > 100 µM
TGI (A498 renal): > 100 µM
TGI (HCT-116 colon): > 100 µM
TGI (KM20L2 colon): > 100 µM
TGI (SNB-75 CNS): > 100 µM
TGI (NCI-H23 lung): > 100 µM
TGI (HOP-92 NSCLC): > 100 µM
TGI (SK-MEL-5 melanoma): > 100 µM
TGI (RXF-631 renal): > 100 µM
TGI (SNB-78 CNS): > 100 µM
TGI (TK-10 renal): > 100 µM
TGI (NCI-H226 lung): > 100 µM
TGI (SW-620 colon): > 100 µM
TGI (SN12C renal): > 100 µM
TGI (COLO 205 colon): > 100 µM
TGI (CAKI-1 renal): > 100 µM
TGI (SK-OV-3 ovarian): 62.6 µM
TGI (LXFL 529 NSCLC): > 100 µM
TGI (SK-MEL-2 melanoma): > 100 µM
TGI (SF-539 CNS): > 100 µM
TGI (A549 NSCLC): > 100 µM
TGI (OVCAR-8 ovarian): > 100 µM
TGI (DLD-1 colon): > 100 µM
TGI (DMS 114 small cell lung): > 100 µM
TGI (NCI-H460 lung): > 100 µM
TGI (UO-31 renal): > 100 µM
TGI (HCT-15 colon): > 100 µM
TGI (SF-295 CNS): > 100 µM
TGI (MALME-3M melanoma): > 100 µM
TGI (KM12 colon): > 100 µM
TGI (UACC-62 melanoma): > 100 µM
TGI (IGROV1 ovarian): > 100 µM
TGI (HT29 colon): > 100 µM
TGI (SNB-19 CNS): > 100 µM
TGI (CCRF-CEM leukemia): > 100 µM
TGI (RXF 393 renal): 45 µM
TGI (HOP-18 NSCLC): > 100 µM
TGI (HCC-2998 colon): > 100 µM
TGI (UACC-257 melanoma): > 100 µM
TGI (MOLT-4 leukemia): > 100 µM
TGI (EKVX NSCLC): > 100 µM
TGI (M14 melanoma): > 100 µM
TGI (HL-60(TB) leukemia): > 100 µM

Nc1ccc2c(c1)C(=O)N(OS(=O)(=O)c1ccccc1)C2=O
TGI (U251 CNS): > 100 µM
TGI (M19-MEL melanoma): > 100 µM
TGI (XF 498 CNS): > 100 µM
TGI (786-0 renal): > 100 µM
TGI (ACHN renal): > 100 µM
TGI (OVCAR-3 ovarian): > 100 µM
TGI (SF-268 CNS): > 100 µM
TGI (DMS 273 small cell lung): > 100 µM
TGI (NCI-H522 lung): 60.7 µM
TGI (HOP-62 NSCLC): > 100 µM
TGI (OVCAR-4 ovarian): > 100 µM
TGI (OVCAR-5 ovarian): > 100 µM
TGI (SK-MEL-28 melanoma): > 100 µM
TGI (A498 renal): > 100 µM
TGI (HCT-116 colon): > 100 µM
TGI (KM20L2 colon): > 100 µM
TGI (SNB-75 CNS): > 100 µM
TGI (NCI-H23 lung): > 100 µM
TGI (HOP-92 NSCLC): > 100 µM
TGI (SK-MEL-5 melanoma): > 100 µM
TGI (RXF-631 renal): > 100 µM
TGI (SNB-78 CNS): > 100 µM
TGI (TK-10 renal): > 100 µM
TGI (NCI-H226 lung): > 100 µM
TGI (SW-620 colon): > 100 µM
TGI (SN12C renal): > 100 µM
TGI (COLO 205 colon): > 100 µM
TGI (LOX IMVI melanoma): > 100 µM
TGI (CAKI-1 renal): > 100 µM
TGI (SK-OV-3 ovarian): > 100 µM
TGI (LXFL 529 NSCLC): > 100 µM
TGI (K-562 leukemia): > 100 µM
TGI (SK-MEL-2 melanoma): > 100 µM
TGI (SF-539 CNS): > 100 µM
TGI (A549 NSCLC): > 100 µM
TGI (OVCAR-8 ovarian): > 100 µM
TGI (DLD-1 colon): > 100 µM
TGI (DMS 114 small cell lung): > 100 µM
TGI (NCI-H460 lung): > 100 µM
TGI (UO-31 renal): > 100 µM
TGI (HCT-15 colon): > 100 µM
TGI (SF-295 CNS): > 100 µM
TGI (MALME-3M melanoma): > 100 µM
TGI (KM12 colon): > 100 µM
TGI (UACC-62 melanoma): > 100 µM
TGI (IGROV1 ovarian): > 100 µM
TGI (HT29 colon): > 100 µM
TGI (SNB-19 CNS): > 100 µM
TGI (CCRF-CEM leukemia): > 100 µM
TGI (RXF 393 renal): > 100 µM
TGI (HOP-18 NSCLC): > 100 µM
TGI (HCC-2998 colon): > 100 µM
TGI (UACC-257 melanoma): > 100 µM
TGI (EKVX NSCLC): > 100 µM
TGI (M14 melanoma): > 100 µM
TGI (HL-60(TB) leukemia): > 100 µM
